We go through two compounds from patent publication US10570177B2, “P3 peptidylic inhibitors for treating CAG-repeat RNA toxicity in polyglutamine diseases” (The Chinese University of Hong Kong, priority 2017, dated 2020).

“And” between values parts separate entries of the source, which are not always exact repeats. Equal entries are not always repeated. Marks after values point to notes of the source that are not given here. Residues, ends and D or L forms follow the SMILES beside them. *: point of attachment. Palmitoyl = CCCCCCCCCCCCCCCC(=O)*

The nature of series [1]: In vitro stability in rat brain homogenate. The following applies: 37° C. Type of series: in vitro ADME. On the procedure:
(§1) Sprague-Dawley (SD) rats (male, 180-200 g) were supplied by the Laboratory Animal Services Centre at The Chinese University of Hong Kong. All animal studies were conducted under the approval of the Animal Ethics Committee of The Chinese University of Hong Kong, and were performed in accordance with relevant guidelines and regulations. Blank rat brain homogenate was prepared by ultrasonic probe homogenization (Micoson XL-2000, Misonix, Framingdale, N.Y., USA) of brains collected from the control rats. Blank rat plasma was prepared by centrifugation (8000 rcf for 3.5 min) of blood collected from control rats. […] The mixtures were incubated at 37° C. with 100 rpm in a water bath for 1 or 3 hr. The incubation was terminated by addition twice the volume of acetonitrile and centrifugation at 13000 rcf for 10 min. The supernatant was collected for LC/MS/MS analysis.

A further series concerns HEK293 cells. Description: Cellular uptake studies in HEK293 cells (LC/MS). In kind it is in vitro ADME. As to conditions: 3 hr; for cellular uptake: 100 nM peptide. How it is done:
HEK293 cells were seeded on a 6-well plate at a density of 6×10^5 and cultured overnight at 37° C. with 5% CO2 in DMEM supplemented with 10% FBS and 1% penicillin-streptomycin. Cells were then treated with 100, 500 or 1000 nM of respective peptide at 37° C. for 3 hr. After treatment, the cells were washed with ice-cold PBS and then lysed by 2% SDS solution. Aliquot (100 μl) of the cell lysate was added with 200 μl acetonitrile and centrifuged at 13000 rcf for 10 min to precipitate the proteins. The collected supernatant was subjected to LC/MS analysis. The protein concentration of the cell lysate was measured using a bicinchoninic acid protein assay kit following Sigma's protocol.

Series [2] can be described thus: In vitro stability in rat plasma. In kind it is in vitro ADME. The following applies: 37° C. How it is done: as §1
The nature of series [3]: Brain uptake study in SD rat. On the procedure: SD rats (180-200 g) were anesthetized with an intraperitoneal injection of ketamine (60 mg/kg) and xylazine (6 mg/kg) and received a minor surgery of cannulation with a polythene tube (0.4 mm i.d., 0.8 mm o.d., Harvard Apparatus, Holliston, Mass., USA) in the left jugular vein. The rats received an overnight recovery with free access to food and water. […] For the pharmacokinetic study, after the drug administration, blood samples were collected from the catheter at appropriate time intervals (2, 5, 10, 15, 20, 30, 45, 60, and 90 min). After each collection, 0.2 mL of saline containing 25 IU heparin was injected to compensate for the blood loss. Plasma was collected after centrifugation at 8000 rcf for 3.5 min and stored at −80° C. until analysis. For brain uptake study, at 20 min, the rat was anesthetized and perfused by 500 mL saline, and the whole brain was collected. The brain was wiped by tissue paper to remove excess water, meninges and blood vessels followed by storage at −80° C. until analysis.
To prepare brain homogenate, the whole brain of each rat was minced. Saline (2 mL/g brain) was added followed by ultrasonic probe homogenization on ice. For analysis of P3V8, aliquot of brain homogenate (100 μL) was mixed with 200 μL acetonitrile. The mixture was vortexed for 1 min and followed by centrifugation at 13000 rcf for 10 min to collect the supernatant. […]

A further series addresses MJDCAA/G78 RNA. Put plainly: Isothermal titration calorimetry binding assay, expanded MJDCAA/G78 RNA. How it is done:
To test whether P3V8 specifically targets expanded CAG RNA, ITC experiments were performed using unexpanded CAG RNA (MJDCAG27 RNA), expanded CAG RNA (MJDCAG78 RNA), and expanded CAA/G RNA (MJDCAA/G78 RNA), respectively, to investigate whether the binding of P3V8 is RNA expansion-dependent and sequence-dependent (Table 6).
(§2) Experiments were carried out using a MicroCal iTC200 isothermal titration calorimeter (GE Healthcare) at 25° C. Data were analyzed using the Origin® scientific plotting software version 7 (Microcal Software Inc.). All RNAs and peptides were dissolved in binding buffer (20 mM MOPS, pH 7.0; 300 mM NaCl) and 0.7 mM of peptide was titrated into 0.5 μM of RNA for each experiment. The concentration of RNA was estimated with appropriate extinction coefficients at 260 nm on a Nanodrop 2000 (Thermo Scientific). A reference power of 8 μcal/s was used with an initial 0.5 μl of injection of peptide followed by 2 μl for all subsequent titrations points with a 60 sec initial equilibrium delay and 150 sec pause between injections. The samples were stirred at a speed of 1000 rpm throughout the experiment. The thermal titration data were fitted to the ‘one binding site model’ to determine the dissociation constant (KD). Each experiment was repeated at least 3 times with consistent results obtained.

The target in another series is MJDCAG78 RNA. Put plainly: Isothermal titration calorimetry binding assay, expanded MJDCAG78 RNA. The following applies: ITC at 25° C.; 0.7 mM peptide titrated into 0.5 μM MJDCAG78 RNA; one binding site model; mean ± S.E.M. How it is done:
as §2

The mark [4] stands for this setting: 1000 ng/mL, incubation for 1 hr.
Setting [5] is: 2000 ng/mL, incubation for 1 hr, 60 min.
The mark [6] stands for this setting: 2000 ng/mL, incubation for 3 hr.
Where [7] appears, read: 2000 ng/mL, incubation for 1 hr.

For `CCCCCCCCCCCCCCCC(=O)N[C@@H](CC(=O)O)C(=O)NCC(=O)N[C@@H](CCCCN)C(=O)N[C@@H](CO)C(=O)N[C@@H](CCCCN)C(=O)NCC(=O)N[C@H](C(=O)N[C@@H](C)C(=O)N[C@@H](Cc1ccc(O)cc1)C(=O)N[C@H](C(=O)N[C@@H](CCC(=O)O)C(=O)N[C@@H](Cc1ccccc1)C(=O)N[C@@H](CCCCN)C(N)=O)[C@@H](C)CC)[C@@H](C)CC` [L1P3V8] (Palmitoyl-DGKSKGIAYIEFK-NH2), the Pecentage of remained in series [1] (500 ng/mL, incubation for 1 hr) is <20^# %; in series [1] (500 ng/mL, incubation for 3 hr) it was <20^# %; in series [1] (setting [4]), 22.8 ± 1.2 %; in series [1] (1000 ng/mL, incubation for 3 hr) it was 15.8 ± 0.7%; in series [1] (setting [5]), 45.0 ± 3.5 %; in series [1] (setting [6]) it was approximately 21.2%. The Pecentage of remained in series [1] (2000 ng/mL, incubation for 3 hr, 180 min) is 21.2 ± 3.0%; in series [2] (500 ng/mL, incubation for 1 hr) it was 88.1 ± 4.9%. In series [1] (male, Sprague-Dawley, rat, tissue homogenate, 2000 ng/mL, incubation for 3 hr, read-out: Pecentage of remained), the remaining at 3 h, 2000 ng/mL is approximately 21%. The cellular uptake entry in the series on HEK293 cells is “low cellular concentration”. Further, the “cellular concentration compared to P3V8” value in the series on HEK293 cells (500 nM and 1 μM treatment) is on record as “higher cellular concentration”. Also, in series [2] (male, Sprague-Dawley, rat, 1000 ng/mL, incubation for 1 hr, read-out: Pecentage of remained), the remaining at 1 h, 1000 ng/mL was found to be 98.7 ± 3.9%. The compound further showed a tissue level at time molar at 20 min in series [3] (Sprague-Dawley, rat, in vivo, iv, 3 umol/kg) of 0.013 nmol/g.
Turning to Ac-DGKSKGIAYIEFK-NH2 [P3V8], the Kd on MJDCAA/G78 RNA (ITC, 0.7 mM peptide into 0.5 μM MJDCAA/G78 RNA, mean ± S.E.M.) is 2940 ± 960 nM; on MJDCAG78 RNA, 330 nM. The “lower affinity than for expanded CAG RNA” value in the series on MJDCAA/G78 RNA (expanded CAA/G RNA vs expanded MJDCAG78 RNA) was 6-9 fold. Moreover, the Pecentage of remained in series [1] (setting [4]) is 4.0 ± 1.6%; in series [1] (setting [7]), 3.3%; in series [1] (setting [5]), 3.3 ± 0.6%; in series [1] (setting [6]), “almost completely degraded”; in series [2] (setting [7]), 20.7% and 20.7 ± 3.3%; in series [2] (setting [6]) it was “almost completely degraded”. The remaining at 1 h, 2000 ng/mL turned out to be 3% in series [1] (male, Sprague-Dawley, rat, rat brain homogenate, 2000 ng/mL, incubation for 1 hr, read-out: Pecentage of remained) and 21% in series [2] (male, Sprague-Dawley, rat, rat plasma, 2000 ng/mL, incubation for 1 hr, read-out: Pecentage of remained). In addition, the cellular uptake entry in the series on HEK293 cells is reported as “no uptake”. In series [3] (20 min after intravenous administration, 3 μmol/kg), the brain concentration result was “no and not detected”.
